Data reported in US7745495B2, “Pyridine ketones with herbicidal effect” (Syngenta Crop Protection, Inc., priority 2004, dated 2010).

How the values were obtained:
Assay type in all cases: in vivo
Chenopodium [1] = assay: Pre-emergence herbicidal action; conditions: 250 g/ha; after 3 weeks; rating 10=total damage, 0=no action
Method: (§1) Monocotyledonous and dicotyledonous test plants are sown in standard soil in plastic pots. Immediately after sowing, the test compounds, in the form of an aqueous suspension (prepared from a 25% wettable powder (Example F3, b) according to WO 97/34485) or in the form of an emulsion (prepared from a 25% emulsifiable concentrate (Example F1, c)), are applied by spraying a concentration corresponding to 125 g or 250 g of active ingredient/ha (500 liter of water/ha). The test plants are then grown in a greenhouse under optimum conditions. After a test duration of 3 weeks, the test is evaluated in accordance with a scale of ten ratings (10=total damage, 0=no action). Ratings of from 10 to 7 (especially from 10 to 8) indicate good to very good herbicidal action.

Stellaria [2] = assay: Pre-emergence herbicidal action; conditions: 250 g/ha; after 3 weeks; rating 10=total damage, 0=no action
Method: as §1

Digitaria [3] = assay: Pre-emergence herbicidal action; conditions: rating 10=total damage, 0=no action
Method: (§2) Monocotyledonous and dicotyledonous test plants are sown in standard soil in plastic pots. […] The test plants are then grown in a greenhouse under optimum conditions. After a test duration of 3 weeks, the test is evaluated in accordance with a scale of ten ratings (10=total damage, 0=no action). Ratings of from 10 to 7 (especially from 10 to 8) indicate good to very good herbicidal action.

Panicum [4] = assay: Pre-emergence herbicidal action; conditions: rating 10=total damage, 0=no action; for Pre-emergent Herbicidal Activity: Panicum: Table B4
Method: as §2

Amaranthus = assay: Pre-emergence herbicidal action; conditions: rating 10=total damage, 0=no action
Method: as §2

Echinochloa = assay: Pre-emergence herbicidal action; conditions: rating 10=total damage, 0=no action
Method: as §2

Abutilon [5] = assay: Pre-emergence herbicidal action; conditions: rating 10=total damage, 0=no action
Method: as §2

Digitaria [6] = assay: Post-emergence herbicidal action; conditions: 250 g/ha; 4- to 6-leaf stage; after about 18 days; rating 10=total damage, 0=no action
Method: (§3) In a greenhouse, monocotyledonous and dicotyledonous test plants are grown in standard soil in plastic pots and at the 4- to 6-leaf stage are sprayed with an aqueous suspension of the test compounds of formula I prepared from a 25% wettable powder (Example F3, b) according to WO 97/34485) or with an emulsion of the test compounds of formula I prepared from a 25% emulsifiable concentrate (Example F1, c) according to WO 97/34485), in a concentration corresponding to 125 g or 250 g of active ingredient/ha (500 liter of water/ha). The test plants are then grown on in a greenhouse under optimum conditions. After a test duration of about 18 days, the test is evaluated in accordance with a scale of ten ratings (10=total damage, 0=no action). Ratings of from 10 to 7 (especially from 10 to 8) indicate good to very good herbicidal action.

Panicum [7] = assay: Post-emergence herbicidal action; conditions: 250 g/ha; 4- to 6-leaf stage; after about 18 days; rating 10=total damage, 0=no action
Method: as §3

Ipomea = assay: Post-emergence herbicidal action; conditions: 250 g/ha; 4- to 6-leaf stage; after about 18 days; rating 10=total damage, 0=no action
Method: as §3

Setaria [8] = assay: Post-emergence herbicidal action; conditions: 250 g/ha; 4- to 6-leaf stage; after about 18 days; rating 10=total damage, 0=no action
Method: as §3

Sinapis = assay: Post-emergence herbicidal action; conditions: 250 g/ha; 4- to 6-leaf stage; after about 18 days; rating 10=total damage, 0=no action
Method: as §3

Chenopodium [9] = assay: Post-emergence herbicidal action; conditions: 250 g/ha; 4- to 6-leaf stage; after about 18 days; rating 10=total damage, 0=no action
Method: as §3

Abutilon [10] = assay: Post-emergence herbicidal action; conditions: 250 g/ha; 4- to 6-leaf stage; after about 18 days; rating 10=total damage, 0=no action
Method: as §3

Stellaria [11] = assay: Post-emergence herbicidal action; conditions: 250 g/ha; 4- to 6-leaf stage; after about 18 days; rating 10=total damage, 0=no action
Method: as §3

Soya = assay: Pre-emergent herbicidal activity on crop plant; conditions: crop plant, rating 10=total damage, 0=no action; for Pre-emergent Herbicidal Activity: Soja: Table B5
Method: as §2
(§4) In the following Table B3, the pre-emergent herbicidal activity of compound H-14 according to the invention is compared with 4 compounds according to the prior art. All compounds are structurally identical except for the nature of the alkylene linker attached to the pyridine ring.

Corn = assay: Pre-emergent herbicidal activity on crop plant; conditions: crop plant, rating 10=total damage, 0=no action; for Pre-emergent Herbicidal Activity: Mais: Table B5
Method: as §2, §4

Brachiaria = assay: Pre-emergent herbicidal activity; conditions: rating 10=total damage, 0=no action
Method: as §2, §4

Setaria [12] = assay: Pre-emergent herbicidal activity; conditions: Table B3, rating 10=total damage, 0=no action
Method: as §2, §4

Xanthium = assay: Pre-emergent herbicidal activity; conditions: Table B4, rating 10=total damage, 0=no action
Method: as §2
In the following Table B4, the pre-emergent herbicidal activity of compound H-3 according to the invention is compared with compound D according to the prior art. Both compounds are structurally identical except for the length of the alkylene linker attached to the pyridine ring.

Scirpus = assay: Pre-emergent herbicidal activity; conditions: Table B5, rating 10=total damage, 0=no action
Method: as §2
In the following Table B5, the pre-emergent herbicidal activity of compound H-9 according to the invention is compared with compound E according to the prior art. Both compounds are structurally identical except for the length of the alkylene linker attached to the pyridine ring.

## COCCCc1nc(C(F)(F)F)ccc1C(=O)C1C(=O)C2CCC(C2)C1=O (stereo not shown) [Compound H-14, 3-[6-trifluoromethyl-2-(3-methoxy-propyl)-pyridine-3-carbonyl]-bicyclo[3.2.1]octane-2,4-dione]
Chenopodium [1]
  Pre-emergence herbicidal action: Chenopodium: 10
Stellaria [2]
  Pre-emergence herbicidal action: Stellaria: 8
Digitaria [3]; 250 g/ha, after 3 weeks
  Pre-emergence herbicidal action: Digitaria: 10
Panicum [4]; 250 g/ha, after 3 weeks
  Pre-emergence herbicidal action: Panicum: 10
Amaranthus; 250 g/ha, after 3 weeks
  Pre-emergence herbicidal action: Amaranthus: 10
Amaranthus; Table B3, 15 g/ha
  Pre-emergent Herbicidal Activity: Amaranthus: 7
Amaranthus; Table B3, 30 g/ha
  Pre-emergent Herbicidal Activity: Amaranthus: 7
Echinochloa; 250 g/ha, after 3 weeks
  Pre-emergence herbicidal action: Echinochloa: 10
Echinochloa; Table B3, 15 g/ha
  Pre-emergent Herbicidal Activity: Echinochloa: 9
Echinochloa; Table B3, 30 g/ha
  Pre-emergent Herbicidal Activity: Echinochloa: 10
Abutilon [5]; 250 g/ha, after 3 weeks
  Pre-emergence herbicidal action: Abutilon: 10
Abutilon [5]; Table B3, 15 g/ha
  Pre-emergent Herbicidal Activity: Abutilon: 9
Abutilon [5]; Table B3, 30 g/ha
  Pre-emergent Herbicidal Activity: Abutilon: 10
Digitaria [6]
  Post-emergence herbicidal action: Digitaria: 9
Panicum [7]
  Post-emergence herbicidal action: Panicum: 10
Ipomea
  Post-emergence herbicidal action: Ipomea: 10
Setaria [8]
  Post-emergence herbicidal action: Setaria: 10
Sinapis
  Post-emergence herbicidal action: Sinapis: 10
Chenopodium [9]
  Post-emergence herbicidal action: Chenopodium: 10
Abutilon [10]
  Post-emergence herbicidal action: Abutilon: 10
Stellaria [11]
  Post-emergence herbicidal action: Stellaria: 10
Soya; Table B3, 15 g/ha
  Pre-emergent Herbicidal Activity: Soya: 1
Soya; Table B3, 30 g/ha
  Pre-emergent Herbicidal Activity: Soya: 3
Corn; Table B3, 15 g/ha
  Pre-emergent Herbicidal Activity: Corn: 0
Corn; Table B3, 30 g/ha
  Pre-emergent Herbicidal Activity: Corn: 0
Brachiaria; Table B3, 15 g/ha
  Pre-emergent Herbicidal Activity: Brachiaria: 7
Brachiaria; Table B3, 30 g/ha
  Pre-emergent Herbicidal Activity: Brachiaria: 8
Setaria [12]; 15 g/ha
  Pre-emergent Herbicidal Activity: Setaria: 9
Setaria [12]; 30 g/ha
  Pre-emergent Herbicidal Activity: Setaria: 10

## COCc1nc(C(F)F)ccc1C(=O)C1C(=O)C2CCC(C2)C1=O (stereo not shown) [D, reference compound]
Xanthium; 30 g/ha
  Pre-emergent Herbicidal Activity: Xanthium: 0
Xanthium; 60 g/ha
  Pre-emergent Herbicidal Activity: Xanthium: 0
Digitaria [3]; Table B4, 30 g/ha
  Pre-emergent Herbicidal Activity: Digitaria: 7
Digitaria [3]; Table B4, 60 g/ha
  Pre-emergent Herbicidal Activity: Digitaria: 9
Panicum [4]; 30 g/ha
  Pre-emergent Herbicidal Activity: Panicum: 8
Panicum [4]; 60 g/ha
  Pre-emergent Herbicidal Activity: Panicum: 9
Amaranthus; Table B4, 30 g/ha
  Pre-emergent Herbicidal Activity: Amaranthus: 7
Amaranthus; Table B4, 60 g/ha
  Pre-emergent Herbicidal Activity: Amaranthus: 7
Echinochloa; Table B4, 30 g/ha
  Pre-emergent Herbicidal Activity: Echinochloa: 5
Echinochloa; Table B4, 60 g/ha
  Pre-emergent Herbicidal Activity: Echinochloa: 7
Abutilon [5]; Table B4, 30 g/ha
  Pre-emergent Herbicidal Activity: Abutilon: 6
Abutilon [5]; Table B4, 60 g/ha
  Pre-emergent Herbicidal Activity: Abutilon: 9
Soya; Table B4, 30 g/ha
  Pre-emergent Herbicidal Activity: Soya: 2
Soya; Table B4, 60 g/ha
  Pre-emergent Herbicidal Activity: Soya: 3
Corn; Table B4, 30 g/ha
  Pre-emergent Herbicidal Activity: Corn: 0
Corn; Table B4, 60 g/ha
  Pre-emergent Herbicidal Activity: Corn: 0

## COCc1nc(C(F)(F)Cl)ccc1C(=O)C1C(=O)C2CCC(C2)C1=O (stereo not shown) [E, reference compound]
Digitaria [3]; Table B5, 30 g/ha
  Pre-emergent Herbicidal Activity: Digitaria: 6
Digitaria [3]; Table B5, 60 g/ha
  Pre-emergent Herbicidal Activity: Digitaria: 6
Amaranthus; Table B5, 30 g/ha
  Pre-emergent Herbicidal Activity: Amaranthus: 5
Amaranthus; Table B5, 60 g/ha
  Pre-emergent Herbicidal Activity: Amaranthus: 7
Echinochloa; Table B5, 30 g/ha
  Pre-emergent Herbicidal Activity: Echinochloa: 8
Echinochloa; Table B5, 60 g/ha
  Pre-emergent Herbicidal Activity: Echinochloa: 9
Abutilon [5]; Table B5, 30 g/ha
  Pre-emergent Herbicidal Activity: Abutilon: 0
Abutilon [5]; Table B5, 60 g/ha
  Pre-emergent Herbicidal Activity: Abutilon: 0
Scirpus; 30 g/ha
  Pre-emergent Herbicidal Activity: Scirpus: 9
Scirpus; 60 g/ha
  Pre-emergent Herbicidal Activity: Scirpus: 9
Soya; 30 g/ha
  Pre-emergent Herbicidal Activity: Soja: 2
Soya; 60 g/ha
  Pre-emergent Herbicidal Activity: Soja: 4
Corn; 30 g/ha
  Pre-emergent Herbicidal Activity: Mais: 0
Corn; 60 g/ha
  Pre-emergent Herbicidal Activity: Mais: 0
Brachiaria; Table B5, 30 g/ha
  Pre-emergent Herbicidal Activity: Brachiaria: 0
Brachiaria; Table B5, 60 g/ha
  Pre-emergent Herbicidal Activity: Brachiaria: 0
